Source: US20160089401A1, “USES OF TREHALOSE IN CELL SUSPENSIONS” (Cook General Biotechnology LLC, priority 2014, published 2016)

Assays:
[1] = tested on: canine uterine regenerative cells (mesenchymal stem cell populations obtained from canine uterine tissue); assay: Clumping of thawed previously-cryopreserved cells in saline bags with candidate anti-clumping agents; format: cell-based
Method: The cells used in this Example were purified mesenchymal stem cell populations obtained from canine uterine tissue (from passage 5). The cells were frozen in cryovials in 2% DMSO in VetStarch. The frozen cell samples were provided as 2 mL aliquots with a cell density of 10 million cells/mL. Cells from 3 different canine donors were included n the testing, labeled herein as Donor1; Donor2 and Donor3.
Experiments were performed in 50 mL bags commonly used for saline solutions to be administered to the bloodstream of patients. The experimental volume for the prepared cell suspension was between 5-10 mL depending on the run. Chemicals tested for their anti-clumping ability included dextrose, hydroxyethyl starch, and trehalose. Concentrations of these chemicals varied between experiments. Solutions of anti-clumping agents were prepared then injected into the bags. Concentration and volumes were computed so that targeted concentrations of anti-clumping agents were reached once the cells were injected in the bag. Volumes were chosen so that the cells were at one million cells/mL after preparation of the final composition in the bags.
Cryovials containing the cells were thawed in a 37° C. water bath until ice crystals just thawed. Cells were drawn out of the vial through a needle septum of the vial with an 18 gauge needle and slowly added to the bag through a needle septum of the bag so as not to lyse the cells. The vial was then washed with saline and this wash volume was also carefully injected into the bag through the needle septum.

[2] = tested on: canine uterine regenerative cells (mesenchymal stem cell populations obtained from canine uterine tissue); assay: Post-bag cell viability by trypan blue staining; format: cell-based
Method: After time in the bag had expired, the cells were carefully removed from the bag with a syringe and 18 gauge needles. This volume was carefully placed in a 50 mL conical flask. It was mixed to ensure even distribution of cells, then mixed 1:1 with trypan blue and counted to determine viability. The volume was then centrifuged at 400 g for 5 minutes, supernatant aspirated, and resuspended in 2mL complete media. 1 mL of this cell suspension was then plated into a T25 flask. 24 hours later, the plates were observed and the condition of the cells noted.

[3] = Donor2 cells, 1 million/mL, trehalose 1.65%
[4] = Donor2 cells, 1 million/mL, trehalose 3.3%
[5] = summary, previously-cryopreserved cells after thawing

`OC[C@H]1O[C@H](O[C@H]2O[C@H](CO)[C@@H](O)[C@H](O)[C@H]2O)[C@H](O)[C@@H](O)[C@@H]1O` [trehalose, (2R,3S,4S,5R,6R)-2-(hydroxymethyl)-6-[(2R,3R,4S,5S,6R)-3,4,5-trihydroxy-6-(hydroxymethyl)oxan-2-yl]oxyoxane-3,4,5-triol] was tested, and the “clumps after 80 minutes” value ([1]; Donor1 cells (section 1.7 run), 1 million/mL, trehalose 3.3%) was “essentially all clumps were very small and barely visible with the exception of one or two slightly larger clumps”, the “time at which some clumping was observed” value ([1]; Donor1 cells (section 1.7 run), 1 million/mL, trehalose 3.3%, barely visible, very small clumps) was 20 min and the “clumps after 80 minutes” value ([1]; Donor1 cells, 1 million/mL, trehalose 3.3% in final preparation) was “no clumps formed”. For the same compound, the “clumps after 80 minutes” value [1, 3] was “a few stringy clumps”, the “time at which small clumps began to form” value [1, 3] was 20 min and the “clumps after 80 minutes” value [1, 4] was “only several clumps and they remained small”. For the same compound, the “time at which small clumps began to form” value [1, 4] was 20 min, the “clumps after 80 minutes” value ([1]; Donor3 cells, 1 million/mL, trehalose 3.3%) was “only several very small clumps and they were still barely visible” and the “time at which clumps began to form” value ([1]; Donor3 cells, 1 million/mL, trehalose 3.3%, clumps very small and barely visible) was 20 min. For the same compound, the “reduction of cell clumping as compared to saline alone” value [1, 5] was “greatly reduces clumping”, the “size/appearance of clumps present” value [1, 5] was “tiny generally spheroid particles barely visible to the human eye” and the “viability by trypan blue staining” value ([2]; Donor1 cells, end of clumping experiment, trehalose 3.3%, hydroxyethyl starch 25% in final preparation) was 94%. The cell viability ([2]; summary, after exposure for an estimated duration of cell infusion) was “above 90%”.
